Source: US10104891B2 (priority 2014, dated 2018)

What was measured:
Format in all cases: in vivo
[1] = system: Pseudoperonospora cubensis; experiment: Test 2: control effect against cucumber downy mildew; settings: control value vs untreated section; for pest or weed control at 4 µg/mL: Pseudoperonospora cubensis, 120 h
Experimental: (§1) A 10% wettable powder created according to the Pharmaceutical Formulation Example 1 was diluted with a Tween20 solution prepared to a concentration of 1/5000, then the compound of formula [1] was prepared to a concentration of 4 ppm. Further, the compound of formula [1] in Test 4 was adjusted to a concentration of 1,000 ppm.
<Test 2 Test of Control Effect Against Cucumber Downy Mildew>
(§2) Test suspension was applied to cucumber at the 2 leaf stage (species: Sagami hanjiro) in an amount of 20 ml per seedling. One day after application, zoospore suspension of Pseudoperonospora cubensis adjusted to a concentration of 1.0×10^4 units/ml was misted/inoculated, and the seedlings were incubated in a moist chamber adjusted to 22° C. for 16 hr. Then, the onset of the disease was induced in the chamber, and the lesion area rate on the leaves 5 days after inoculation was investigated to compute the control value using the formula below. control value={1−onset area rate of the leaves that were applied the test agent/onset area rate of untreated leaves}×100 Computational formula of the control value: […]

Plasmopara viticola = experiment: Test 3: control effect against grape downy mildew; settings: control value vs untreated section; for pest or weed control at 4 µg/mL: Plasmopara viticola, 120 h
Experimental: as §1
<Test 3 Test of Control Effect Against Grape Downy Mildew>
as §2, with “grape seedling” for “cucumber at the 2 leaf stage”, “Neomuscat)” for “Sagami hanjiro)”, “Plasmopara viticola” for “Pseudoperonospora cubensis”

Phytophthora infestans = experiment: whole plant or invertebrate; settings: for control value (Test 1): tomato late blight, control value vs untreated section; for pest or weed control at 4 µg/mL: Phytophthora infestans, in Solanum lycopersicum, 96 h, read-out: control value (Test 1)

Structure (SMILES) | control value (Test 2) [1] | control value (Test 3) (Plasmopara viticola) | control value (Test 1) (Phytophthora infestans) | pest or weed control at 4 µg/mL [1] | pest or weed control at 4 µg/mL (Plasmopara viticola) | pest or weed control at 4 µg/mL (Phytophthora infestans)
CC1OC(c2csc(C3CCN(C(=O)Cn4nc(C(F)F)cc4C(F)F)CC3)n2)OCc2ccccc21 (mixture of isomers) [Compound 1-75] | 100 | 100 | 100 |  |  | 
Cc1cc(C(F)(F)F)nn1CC(=O)N1CCC(c2nc(C3OCc4ccccc4CO3)cs2)CC1 [Compound 1-1] | 100 | 100 | 100 |  |  | 
Cc1cc(C(F)(F)F)nn1CC(=O)N1CCC(c2nc(C3OCc4cccc(F)c4CO3)cs2)CC1 (stereo not drawn) [Compound 1-2] | 100 | 100 | 100 |  |  | 
Cc1cc2c(cc1C)COC(c1csc(C3CCN(C(=O)Cn4nc(C(F)(F)F)cc4C)CC3)n1)OC2 [Compound 1-4] | 100 | 100 | 100 |  |  | 
Cc1cc(C(F)(F)F)nn1CC(=O)N1CCC(c2nc(C3OCc4cc(Cl)c(Cl)cc4CO3)cs2)CC1 [Compound 1-5] | 100 | 100 | 100 |  |  | 
CCS(=O)(=O)Oc1cccc2c1COC(c1csc(C3CCN(C(=O)Cn4nc(C(F)(F)F)cc4C)CC3)n1)OC2 (stereo not drawn) [Compound 1-7] | 100 | 100 | 100 |  |  | 
Cc1cc(C(F)(F)F)nn1CC(=O)N1CCC(c2nc(C3OCc4ccc(OS(C)(=O)=O)cc4CO3)cs2)CC1 (stereo not drawn) [Compound 1-9] | 80 | 100 | 100 |  |  | 
Cc1cc(C(F)(F)F)nn1CC(=O)N1CCC(c2nc(C3OCc4cc5ccccc5cc4CO3)cs2)CC1 [Compound 1-10, 4-[4-(1,5-dihydro-3H-2,4-naphthodioxepin-3-yl)-2-thiazolyl]-1-[2-[5-methyl-3-(trifluoromethyl)-1H-pyrazole-1-yl]acetyl]piperidine] | 100 | 100 | 100 |  |  | 
Cc1cc(C(F)(F)F)nn1CC(=O)N1CCC(c2nc(C3OCc4cccc([N+](=O)[O-])c4CO3)cs2)CC1 (stereo not drawn) [Compound 1-12] | 100 | 100 | 100 |  |  | 
Cc1cc(C(F)(F)F)nn1CC(=O)N1CCC(c2nc(C3OCc4cccc(OS(=O)(=O)C5CC5)c4CO3)cs2)CC1 (stereo not drawn) [Compound 1-13] | 100 | 100 | 100 |  |  | 
Cc1cccc2c1COC(c1csc(C3CCN(C(=O)Cn4nc(C(F)(F)F)cc4C)CC3)n1)OC2 (stereo not drawn) [Compound 1-14] | 100 | 100 | 100 |  |  | 
Cc1cc(C(F)(F)F)nn1CC(=O)N1CCC(c2nc(C3OCc4ccc(C(F)(F)F)cc4CO3)cs2)CC1 (stereo not drawn) [Compound 1-16] | 100 | 100 | 100 |  |  | 
Cc1cc(C(F)(F)F)nn1CC(=O)N1CCC(c2nc(C3OCc4c(F)c(F)c(F)c(F)c4CO3)cs2)CC1 [Compound 1-17] | 100 | 100 | 100 |  |  | 
Cc1cc(C(F)(F)F)nn1CC(=O)N1CCC(c2nc(C3OCc4ccccc4C(C)O3)cs2)CC1 (stereo not drawn) [Compound 1-18] | 100 | 100 | 100 |  |  | 
Cc1ccc(OS(C)(=O)=O)c2c1COC(c1csc(C3CCN(C(=O)Cn4nc(C(F)(F)F)cc4C)CC3)n1)OC2 (stereo not drawn) [Compound 1-19] | 100 | 100 | 100 |  |  | 
Cc1ccc2c(c1)COC(c1csc(C3CCN(C(=O)Cn4nc(C(F)(F)F)cc4C)CC3)n1)OC2 (stereo not drawn) [Compound 1-20] | 100 | 100 | 100 |  |  | 
COc1ccc(Br)c2c1COC(c1csc(C3CCN(C(=O)Cn4nc(C(F)(F)F)cc4C)CC3)n1)OC2 (stereo not drawn) [Compound 1-24] | 100 | 100 | 100 |  |  | 

Structure (SMILES) | control value (Test 2) [1] | control value (Test 3) (Plasmopara viticola) | control value (Test 1) (Phytophthora infestans) | pest or weed control at 4 µg/mL [1] | pest or weed control at 4 µg/mL (Plasmopara viticola) | pest or weed control at 4 µg/mL (Phytophthora infestans)
CCCCCCCCS(=O)(=O)Oc1cccc2c1COC(c1csc(C3CCN(C(=O)Cn4nc(C(F)(F)F)cc4C)CC3)n1)OC2 (stereo not drawn) [Compound 1-25] | 100 | 100 | 100 |  |  | 
COc1ccc(OS(C)(=O)=O)c2c1COC(c1csc(C3CCN(C(=O)Cn4nc(C(F)(F)F)cc4C)CC3)n1)OC2 (stereo not drawn) [Compound 1-26] | 100 | 100 | 100 |  |  | 
Cc1cc(C(F)(F)F)nn1CC(=O)N1CCC(c2nc(C3OCc4ccc([N+](=O)[O-])cc4CO3)cs2)CC1 (stereo not drawn) [Compound 1-27] | 100 | 100 | 100 |  |  | 
Cc1cc(C(F)(F)F)nn1CC(=O)N1CCC(c2nc(C3OCc4cccc(OS(=O)(=O)C(C)C)c4CO3)cs2)CC1 (stereo not drawn) [Compound 1-28] | 100 | 100 | 100 |  |  | 
CCS(=O)(=O)Oc1ccc2c(c1)COC(c1csc(C3CCN(C(=O)Cn4nc(C(F)(F)F)cc4C)CC3)n1)OC2 (stereo not drawn) [Compound 1-29] | 90 | 100 | 100 |  |  | 
Cc1cc(C(F)(F)F)nn1CC(=O)N1CCC(c2nc(C3OCc4cccc(OS(=O)(=O)CCC(F)(F)F)c4CO3)cs2)CC1 (stereo not drawn) [Compound 1-30] | 100 | 100 | 100 |  |  | 
Cc1cc(C(F)(F)F)nn1CC(=O)N1CCC(c2nc(C3OCc4cc5c(cc4CO3)CCC5)cs2)CC1 [Compound 1-31] | 100 | 100 | 100 |  |  | 
O=C(Cn1nc(C(F)F)cc1C(F)F)N1CCC(c2nc(C3OCc4cccc(F)c4CO3)cs2)CC1 (stereo not drawn) [Compound 1-35] | 100 | 100 | 100 |  |  | 
COC(=O)Oc1cccc2c1COC(c1csc(C3CCN(C(=O)Cn4nc(C(F)(F)F)cc4C)CC3)n1)OC2 (stereo not drawn) [Compound 1-37] | 100 | 100 | 100 |  |  | 
CS(=O)(=O)Oc1cccc2c1COC(c1csc(C3CCN(C(=O)Cn4nc(C(F)F)cc4C(F)F)CC3)n1)OC2 (stereo not drawn) [Compound 1-38, 4-[4-(6-methylsulfonyloxy-1,5-dihydro-3H-2,4-benzodioxepin-3-yl)-2-thiazolyl]-1-[2-[3,5-bis(difluoromethyl)-1H-pyrazole-1-yl]acetyl]piperidine] |  |  |  | 100% | 100% | 100%
COc1ccc(OS(C)(=O)=O)c2c1COC(c1csc(C3CCN(C(=O)Cn4nc(C(F)F)cc4C(F)F)CC3)n1)OC2 (stereo not drawn) [Compound 1-39, 4-[4-(6-methoxy-9-methylsulfonyloxy-1,5-dihydro-3H-2,4-benzodioxepin-3-yl)-2-thiazolyl]-1-[2-[3,5-bis(difluoromethyl)-1H-pyrazole-1-yl]acetyl]piperidine] |  |  |  | 100% | 100% | 100%
O=C(Cn1nc(C(F)(F)F)cc1C(F)(F)F)N1CCC(c2nc(C3OCc4cccc(F)c4CO3)cs2)CC1 (stereo not drawn) [Compound 1-41] | 100 | 100 | 100 |  |  | 
CS(=O)(=O)Oc1cccc2c1COC(c1csc(C3CCN(C(=O)Cn4nc(C(F)(F)F)cc4C(F)(F)F)CC3)n1)OC2 (stereo not drawn) [Compound 1-42, 4-[4-(6-methylsulfonyloxy-1,5-dihydro-3H-2,4-benzodioxepin-3-yl)-2-thiazolyl]-1-[2-[3,5-bis(trifluoromethyl)-1H-pyrazole-1-yl]acetyl]piperidine] |  |  |  | 100% | 100% | 100%
Cc1cc(C(F)(F)F)nn1CC(=O)N1CCC(c2nc(C3OCc4cccc(NS(C)(=O)=O)c4CO3)cs2)CC1 (stereo not drawn) [Compound 1-43] | 100 | 100 | 80 |  |  | 
COc1ccc([N+](=O)[O-])c2c1COC(c1csc(C3CCN(C(=O)Cn4nc(C(F)(F)F)cc4C)CC3)n1)OC2 (stereo not drawn) [Compound 1-46] | 100 | 100 | 100 |  |  | 
Cc1cc(C(F)(F)F)nn1CC(=O)N1CCC(c2nc(C3OCc4cccc(OS(=O)(=O)c5ccccc5)c4CO3)cs2)CC1 (stereo not drawn) [Compound 1-48] | 100 | 100 | 100 |  |  | 
Cc1cc(C(F)(F)F)nn1CC(=O)N1CCC(c2nc(C3OCc4cccc(CO)c4CO3)cs2)CC1 (stereo not drawn) [Compound 1-52] | 100 | 100 | 100 |  |  | 
